Results: patent US10219516B2, “Molecules having pesticidal utility, and intermediates, compositions, and processes, related thereto” (priority 2015, dated 2019)

Legend:
Type in all cases: in vivo
[1] = test system: Yellow Fever Mosquito (Aedes aegypti, AEDSAE); test: Bioassay on Yellow Fever Mosquito (YFM), 96-well plate larval assay; conditions: Yellow Fever Mosquito, 96-well plate larval assay
In short: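 Each well was scored for mortality after 3 days at room temperature under a non-evaporative lid. Test molecules came from DMSO masters (4000 ppm stock) diluted with water/acetone 90:10 and dispensed into six replicate plates, which were then infested with roughly 1-day-old larvae in liver-powder water.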

[2] = test system: Cabbage Looper (Trichoplusia ni, TRIPNI); test: Bioassay on Cabbage Looper (CL), 128-well diet tray assay; conditions: Trichoplusia ni; Cabbage Looper, 128-well diet tray assay; read-out: CL rating
In short: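 Mortality of second instar larvae exposed to diet coated with 50 μg/cm^2 compound (acetone-water 90:10 vehicle, dried); 25° C., 5–7 days.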

[3] = test system: Beet Armyworm (Spodoptera exigua, LAPHEG); test: Bioassay on Beet Armyworm (BAW), 128-well diet tray assay; conditions: Beet Armyworm, 128-well diet tray assay, read-out: BAW rating
In short: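 Diet in each of eight wells received 50 μg/cm^2 of test molecule (90:10 acetone-water, dried), then one to five second-instar larvae were added. Mortality (%) was scored after five to seven days at 25° C. under 14:10 light-dark and averaged across the wells.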

SMILES | YFM rating [1] | pest or weed control at 50 µg/cm2 [2] [%] | pest or weed control at 50 µg/cm2 [3] [%]
Nc1cc(F)c(NC(=O)c2cc(NC(=O)[C@H]3[C@H](c4cc(Cl)cc(Cl)c4)C3(Cl)Cl)ccc2Cl)cc1F [F568, trans-N-(4-Amino-2,5-difluorophenyl)-2-chloro-5-((1R,3R)-2,2-dichloro-3-(3,5-dichlorophenyl)cyclopropane-1-carboxamido)benzamide] | A (80-100) | 50 to 100 | 50 to 100
Nc1cc(F)c(NC(=O)c2cc(NC(=O)[C@H]3[C@H](c4ccc(Cl)c(Cl)c4)C3(Cl)Cl)ccc2Cl)cc1F [F569, trans-N-(4-Amino-2,5-difluorophenyl)-2-chloro-5-((1R,3R)-2,2-dichloro-3-(3,4-dichlorophenyl)cyclopropane-1-carboxamido)benzamide] | A (80-100) | 50 to 100 | 50 to 100
Nc1cc(F)c(NC(=O)c2cc(NC(=O)[C@H]3[C@H](c4cc(Cl)c(Cl)c(Cl)c4)C3(Cl)Cl)ccc2Cl)cc1F [F570, trans-N-(4-Amino-2,5-difluorophenyl)-2-chloro-5-((1R,3R)-2,2-dichloro-3-(3,4,5-trichlorophenyl)cyclopropane-1-carboxamido)benzamide] | A (80-100) | 50 to 100 | 50 to 100
Nc1cc(F)c(NC(=O)c2cc(NC(=O)[C@H]3[C@H](c4ccc(F)c(Cl)c4)C3(Cl)Cl)ccc2Cl)cc1F [F571, trans-N-(4-Amino-2,5-difluorophenyl)-2-chloro-5-((1R,3R)-2,2-dichloro-3-(3-chloro-4-fluorophenyl)cyclopropane-1-carboxamido)benzamide] | A (80-100) | 50 to 100 | 50 to 100
O=C(Nc1ccc(F)cc1F)c1cc(NC(=O)[C@H]2[C@H](c3ccc(Cl)c(Br)c3)C2(Cl)Cl)ccc1Cl [F572, 5-((1R,3R)-3-(3-Bromo-4-chlorophenyl)-2,2-dichlorocyclopropane-1-carboxamido)-2-chloro-N-(2,4-difluorophenyl)benzamide] | A (80-100) | 50 to 100 | 50 to 100
O=C(Nc1ccc(F)cc1F)c1cc(NC(=O)[C@@H]2[C@@H](c3ccc(Cl)c(Br)c3)C2(Cl)Cl)ccc1Cl [F573, 5-((1S,3S)-3-(3-Bromo-4-chlorophenyl)-2,2-dichlorocyclopropane-1-carboxamido)-2-chloro-N-(2,4-difluorophenyl)benzamide] | A (80-100) | 50 to 100 | 50 to 100
Nc1cc(F)ccc1NC(=O)c1cc(NC(=O)[C@H]2[C@H](c3cc(Cl)cc(Cl)c3)C2(Cl)Cl)ccc1Cl [F575, N-(2-Amino-4-fluorophenyl)-2-chloro-5-((1R,3R)-2,2-dichloro-3-(3,5-dichlorophenyl)cyclopropane-1-carboxamido)benzamide] | A (80-100) | 50 to 100 | 50 to 100
Nc1cc(F)ccc1NC(=O)c1cc(NC(=O)[C@H]2[C@H](c3ccc(Cl)c(Cl)c3)C2(Cl)Cl)ccc1Cl [F576, N-(2-Amino-4-fluorophenyl)-2-chloro-5-((1R,3R)-2,2-dichloro-3-(3,4-dichlorophenyl)cyclopropane-1-carboxamido)benzamide] | A (80-100) | 50 to 100 | 50 to 100
Nc1cc(F)ccc1NC(=O)c1cc(NC(=O)[C@H]2[C@H](c3cc(Cl)c(Cl)c(Cl)c3)C2(Cl)Cl)ccc1Cl [F577, N-(2-Amino-4-fluorophenyl)-2-chloro-5-((1R,3R)-2,2-dichloro-3-(3,4,5-trichlorophenyl)cyclopropane-1-carboxamido)benzamide] | A (80-100) | 50 to 100 | 50 to 100
Nc1cc(F)ccc1NC(=O)c1cc(NC(=O)[C@H]2[C@H](c3ccc(F)c(Cl)c3)C2(Cl)Cl)ccc1Cl [F578, N-(2-Amino-4-fluorophenyl)-2-chloro-5-((1R,3R)-2,2-dichloro-3-(3-chloro-4-fluorophenyl)cyclopropane-1-carboxamido)benzamide] | A (80-100) | 50 to 100 | 50 to 100
Nc1cc(NC(=O)c2cc(NC(=O)[C@H]3[C@H](c4ccc(Cl)c(Br)c4)C3(Cl)Cl)ccc2Cl)c(F)cc1F [F580, N-(5-Amino-2,4-difluorophenyl)-5-((1R,3R)-3-(3-bromo-4-chlorophenyl)-2,2-dichlorocyclopropane-1-carboxamido)-2-chlorobenzamide] | A (80-100) | 50 to 100 | 50 to 100
O=C(Nc1ccc(F)cc1F)c1cc(NC(=O)C2C(c3cc(F)c(F)c(F)c3)C2(Cl)Cl)ccc1Cl (stereo not drawn) [F581, 2-Chloro-5-trans-(2,2-dichloro-3-(3,4,5-trifluorophenyl)cyclopropane-1-carboxamido)-N-(2,4-difluorophenyl)benzamide] | A (80-100) | 50 to 100 | 50 to 100
O=C(Nc1cc(F)c(F)c(Br)c1)c1cc(NC(=O)[C@H]2[C@H](c3cc(Cl)cc(Cl)c3)C2(Cl)Cl)ccc1Cl [F583, N-(3-Bromo-4,5-difluorophenyl)-2-chloro-5-((1R,3R)-2,2-dichloro-3-(3,5-dichlorophenyl)cyclopropane-1-carboxamido)benzamide] | A (80-100) | 50 to 100 | 50 to 100
O=C(Nc1ccc(F)cc1F)c1cc(NC(=O)C2C(c3ccc(Cl)c(F)c3)C2(Cl)Cl)ccc1Cl (stereo not drawn) [PF36, 2-Chloro-5-(trans)-2,2-dichloro-3-(4-chloro-3-fluorophenyl)cyclopropane-1-carboxamido)-N-(2,4-difluorophenyl)benzamide] | A (80-100) | 50 to 100 | 50 to 100
O=C(Nc1ccc(F)cc1)c1cc(NC(=O)C2C(c3cc(Cl)cc(Cl)c3)C2(F)Br)ccc1Cl (stereo not drawn) [PF51, 5-(trans)-2-Bromo-3-(3,5-dichlorophenyl)-2-fluorocyclopropane-1-carboxamido)-2-chloro-N-(4-fluorophenyl)benzamide] | B (More than 0-Less than 80) | 50 to 100 | 50 to 100
COc1cc(NC(=O)c2cc(NC(=O)C3C(c4cc(Cl)cc(Cl)c4)C3(Cl)Cl)ccc2Cl)ccc1Cl (stereo not drawn) [PF114, 2-Chloro-N-(4-chloro-3-methoxyphenyl)-5-(trans)-2,2-dichloro-3-(3,5-dichlorophenyl)cyclopropane-1-carboxamido)benzamide] | A (80-100) | 50 to 100 | 50 to 100
O=C(Nc1ccc(Br)c(F)c1)c1cc(NC(=O)C2C(c3cc(Cl)cc(Cl)c3)C2(Cl)Cl)ccc1Cl (stereo not drawn) [PF115, N-(4-Bromo-3-fluorophenyl)-2-chloro-5-(trans)-2,2-dichloro-3-(3,5-dichlorophenyl)cyclopropane-1-carboxamido)benzamide] | A (80-100) | 50 to 100 | 50 to 100
